For data set [1] the following is noted: in vivo; cited from earlier work.
The conditions of data set [2]: rock doves, nicotine in cationic water-soluble form, predicted from MW size-dependence of paracellular absorption. An excerpt: These factors of molecule size, charge, and associated nutrients help define the conditions under which water-soluble SMs may be best absorbed.
The conditions of data set [3]: rock doves, area under the curve calculations; ref F. D. Cid, E. Caviedes-Vidal and W.H. Karasov, unpubl. observations; cited from earlier work.
On the set-up of data set [4]: method as in PMID 18025481. Particulars: rats, cited from earlier work.
Data set [5] in a line: Fractional absorption of orally administered probes by yellow-vented bulbul (plasma AUC). The data set is classed as in vivo, Pycnonotus xanthopygos. The note with it: oral; for Fractional absorption (f): AUCoral/AUCinj, mean ± SEM; for Tmax: Pycnonotus xanthopygos, plasma, read-out: Time of peak plasma level post oral administration (converted). As to the method:
(§1) As a measure of passive, paracellular absorption, we used standard methods from pharmacokinetics to measure the whole-organism fractional absorption of water-soluble compounds. As described in more detail, below, metabolically inert probe molecules were injected and also administered orally with a gavage needle to intact animals in separate experiments, and blood and/or urine samples were serially collected and analyzed for the probe molecules by liquid scintillation. Fractional absorption (f) was calculated as [post oral administration AUC]/[ post injection AUC] where AUC = dose-corrected area under the curve of plasma or urine probe amount vs. time. […] In mammals, the probes can be recovered in urine, and estimates of oral absorption take account of possible differential recovery by incorporating data on probes when injected. As shown in Results, recoveries of carbohydrate probes were uniformly high, which is in agreement with measures by others in rats and humans. In birds, plasma is sampled rather than urine, because urine is mixed in the avian cloaca with undigested residue from the intestine. […] In Discussion we elaborate on comparisons between these two procedures and reasons to choose them.
(§2) Also, the rodents were transferred to metabolic cages with wire bottoms and a tray beneath from which to collect clean urine samples. At the beginning of a trial, animals were orally dosed at 1.0% body mass with an isosmotic solution containing L-[^14C]arabinose (∼0.02 µCi/g animal) and either [^3H]3OMD-glucose (∼0.1 µCi/g animal) or [^3H]lactulose (∼0.5 µCi/g animal). Oral dose solutions also contained NaCl (∼90 mM, ∼180 mOsm) and D-glucose (∼90 mM, ∼90 mOsm). NaCl was included in the solution to balance osmolality. Inclusion of Na^+ also provides an essential ion for Na^+-coupled D-glucose absorption, although it is not strictly necessary in this kind of whole-animal study because animals would still absorb nearly all glucose even if the diet is low in Na^+ because additional Na^+ is secreted into the intestinal lumen together with bicarbonate and diffuses from blood. In a separate experimental trial, each animal was injected (0.6% body mass) with isosmotic NaCl solution containing L-[^14C]arabinose (∼0.02 µCi/g animal) and either [^3H]3OMD-glucose (∼0.1 µCi/g animal) or [^3H]lactulose (∼0.1 µCi/g animal). The injection site was the pectoralis muscle in birds and the peritoneal cavity in rodents. Syringes were weighed before and after dosing animals to determine actual dose administered.
(§3) After administration of radiolabeled probes, birds and rodents were returned to their cages, where birds had ad libitum access to fruit and the rodents had ad libitum access to sucrose solution (10% w/w). The purpose was to provide rodents water and some calories and also make them urinate more. Serial blood samples (∼25 µL) were drawn from the brachial vein of birds as described previously at t = 0 (background), 10, 20, 30, 45, 60, 80 or 90, 120, 150 min post-injection or post-oral administration. Plasma was separated using a standard hematocrit centrifuge, placed in scintillation vials and weighed. […] Scintillation cocktail (Quicksafe A, Zinsser, UK) was added and samples were counted for disintegrations per minute (dpm) by liquid scintillation (Packard Tri-Carb 1600 TR scintillation counter, Packard INC., Meriden CT, USA), with corrections for quench and appearance of ^14C counts in the ^3H channel. […]

Data set [6] is described as follows: Fractional absorption of orally administered probes by Tristram's grackle (plasma AUC). The note with it: oral; for Fractional absorption (f): AUCoral/AUCinj, mean ± SEM; for Tmax: Onychognathus tristramii, plasma, read-out: Time of peak plasma level post oral administration. In kind it is in vivo, Onychognathus tristramii. As to the method: as §1, §2, §3
Data set [7] can be described thus: Recovery of injected probes in urine, both rodent species pooled. Particulars: Acomys cahirinus and Acomys russatus (pooled), intraperitoneal, data for both rodent species pooled, post-injection, read-out: Recovery of injected probe in urine, 95% C.I. The data set is classed as in vivo. As to the method:
as §1
Also, the rodents were transferred to metabolic cages with wire bottoms and a tray beneath from which to collect clean urine samples. At the beginning of a trial, animals were orally dosed at 1.0% body mass with an isosmotic solution containing L-[^14C]arabinose (∼0.02 µCi/g animal) and either [^3H]3OMD-glucose (∼0.1 µCi/g animal) or [^3H]lactulose (∼0.5 µCi/g animal). […]
(§4) After administration of radiolabeled probes, birds and rodents were returned to their cages, where birds had ad libitum access to fruit and the rodents had ad libitum access to sucrose solution (10% w/w). […] Scintillation cocktail (Quicksafe A, Zinsser, UK) was added and samples were counted for disintegrations per minute (dpm) by liquid scintillation (Packard Tri-Carb 1600 TR scintillation counter, Packard INC., Meriden CT, USA), with corrections for quench and appearance of ^14C counts in the ^3H channel. […]

The nature of data set [8]: Fractional absorption of orally administered probes by rodents (urine recovery). In kind it is in vivo, Acomys cahirinus and Acomys russatus. Particulars: for Fractional absorption (f): oral, both rodent species pooled, corrected for post-injection recovery, mean ± SEM. As to the method: as §1, §2, §3
The nature of data set [9]: Fractional absorption of orally administered probes, both bird species pooled. The data set is classed as in vivo, Onychognathus tristramii and Pycnonotus xanthopygos. Particulars: for Fractional absorption (f): oral, both bird species pooled, mean ± SEM. As to the method:
as §1
as §2, with “In a separate experimental trial, each animal was injected (0.6% body mass) with isosmotic NaCl solution containing L-[^14C]arabinose (∼0.02 µCi/g animal) and either [^3H]3OMD-glucose (∼0.1 µCi/g animal) or [^3H]lactulose (∼0.1 µCi/g animal). The injection site was the pectoralis muscle in birds and the peritoneal cavity in rodents. Syringes were weighed before and after dosing animals to determine actual dose administered.” left out
as §4

The nature of data set [10]: Mono-exponential fit of plasma probe concentrations after injection, Tristram's grackle. The data set is classed as in vivo, Onychognathus tristramii. The note with it: dose-corrected plasma concentration, mean ± SEM. As to the method: as §2, with “In a separate experimental trial, each animal was injected (0.6% body mass) with isosmotic NaCl solution containing L-[^14C]arabinose (∼0.02 µCi/g animal) and either [^3H]3OMD-glucose (∼0.1 µCi/g animal) or [^3H]lactulose (∼0.1 µCi/g animal). The injection site was the pectoralis muscle in birds and the peritoneal cavity in rodents. Syringes were weighed before and after dosing animals to determine actual dose administered.” left out
as §4

The nature of data set [11]: Recovery of injected probes in urine of golden spiny mice. Particulars: Acomys russatus (golden spiny mouse), ip; A. russatus, intraperitoneal injection, cumulative urine recovery, mean ± SEM; read-out: Recovery of injected probe in urine. The data set is classed as in vivo. As to the method:
(§5) As a measure of passive, paracellular absorption, we used standard methods from pharmacokinetics to measure the whole-organism fractional absorption of water-soluble compounds. As described in more detail, below, metabolically inert probe molecules were injected and also administered orally with a gavage needle to intact animals in separate experiments, and blood and/or urine samples were serially collected and analyzed for the probe molecules by liquid scintillation. Fractional absorption (f) was calculated as [post oral administration AUC]/[ post injection AUC] where AUC = dose-corrected area under the curve of plasma or urine probe amount vs. time. […] In mammals, the probes can be recovered in urine, and estimates of oral absorption take account of possible differential recovery by incorporating data on probes when injected. […]
as §4

Data set [12] in a line: Mono-exponential fit of plasma probe concentrations after injection, yellow-vented bulbul. The data set is classed as in vivo, Pycnonotus xanthopygos. Particulars: dose-corrected plasma concentration, mean ± SEM. As to the method:
as §2, with “In a separate experimental trial, each animal was injected (0.6% body mass) with isosmotic NaCl solution containing L-[^14C]arabinose (∼0.02 µCi/g animal) and either [^3H]3OMD-glucose (∼0.1 µCi/g animal) or [^3H]lactulose (∼0.1 µCi/g animal). The injection site was the pectoralis muscle in birds and the peritoneal cavity in rodents. Syringes were weighed before and after dosing animals to determine actual dose administered.” left out
as §4

A short description of data set [13]: Recovery of injected probes in urine of common spiny mice. The note with it: Acomys cahirinus (common spiny mouse), ip; A. cahirinus, intraperitoneal injection, cumulative urine recovery, mean ± SEM; read-out: Recovery of injected probe in urine. In kind it is in vivo. As to the method: as §5, §4
Data set [14] concerns whole-animal glucose absorption. Also on record: method as in PMID 20145981. The note with it: American robins; cited from earlier work.
For data set [15] the test system is unchanged. Also on record: method as in PMID 20145981. The note with it: laboratory rats, cited from earlier work.
On the set-up of data set [16]: method as in PMID 2167807. Particulars: humans, corrected for incomplete urine recovery; cited from earlier work.
Details of data set [17]: method as in PMID 17644690. Particulars: rock doves; cited from earlier work.
Details of data set [18]: method as in PMID 17644690. Particulars: laboratory rats; cited from earlier work.
Details of data set [19]: method as in earlier work. Particulars: house sparrows; cited from earlier work.

Structures are written as SMILES. “And” between values parts separate entries of the source, which are not always exact repeats. Equal values may be shown once. Read-outs that look alike come from different tables or passages of the source. Some results are limits rather than exact numbers.

Take `O=C[C@@H](O)[C@H](O)[C@@H](O)[C@@H](O)CO` [L-glucose]: the “Share of glucose absorption accounted for by L-glucose (passive)” value in [1] is given as 50 to >90.
As for `CN1CCC[C@H]1c1cccnc1` [nicotine], in data set [2], the “Predicted absorption of a dose” value is recorded as “around 40%”. Besides, the “Absorption of a dose” value in [3] was 44±3%.
In the case of `C[C@H](O)[C@H](O)[C@@H](O)[C@@H](O)C=O` [L-rhamnose], the figures for the Fractional absorption in data set [4] (estimate from serially sampling blood) and in [4] (measured by urine recovery) were 0.24±0.03 and 0.22±0.03, respectively.
As to `OC[C@H]1O[C@@H](O[C@@H]2[C@@H](CO)OC(O)(CO)[C@H]2O)[C@H](O)[C@@H](O)[C@H]1O` (mixture of isomers) [lactulose], the “Fractional absorption (f)” value is reported as 0.30±0.10 in data set [5], 0.069±0.011 in data set [6], 0.085±0.021 in data set [8] and 0.17±0.06 in [9]. In data set [7], the dose excreted fell in the range of 90 to 97%.
On to `CO[C@@H]([C@H](O)[C@H](O)CO)[C@@H](O)C=O` [3-O-methyl-D-glucose], for which the Tmax in [5] is 30 min; in data set [6], 40 to 50 min. For the same compound, the “Fractional absorption (f)” value was found to be 0.80±0.19 in [5], 0.95±0.08 in data set [6], 0.95±0.01 in [8] and 0.88±0.08 in [9]. Besides, the “A, mono-exponential fit Ct = A e^−αt” value in data set [10] came out at 22.6±3.0 mg^−1 plasma; in data set [12] it was 81.1±10.4 mg^−1 plasma. Also, the dose excreted in [11] is 93 ± 3%; in data set [7], 96 to 101%; in data set [13], 100 ± 1%. Moreover, the “Ratio f L-arabinose/f 3OMD-glucose (proportion of 3OMD-glucose absorption that is passive)” value amounted to 0.34 in data set [8] (rodents, corrected for difference in MW) and 1 in data set [9] (birds, corrected for difference in MW).
As for `O=C(CCc1ccc(O)cc1)c1c(O)cc(O)cc1O[C@@H]1O[C@H](CO)[C@@H](O)[C@H](O)[C@H]1O` [phloridzin], the “Effect on glucose absorption” value in data set [14] is “did not significantly decrease glucose absorption”. Further, the “Inhibition of whole-animal glucose absorption efficiency” value in [15] (10 mM) is above 36%.
`O=c1c(OC2OC(CO)C(O)C(O)C2O)c(-c2ccc(O)c(O)c2)oc2cc(O)cc(O)c12` (centres unmarked) [isoquercetrin]: the entries for the “Effect on glucose absorption” value in [14] and in [15] were “not in robins” and “significantly decreased glucose absorption”, respectively.
With `OC1OC[C@H](O)[C@H](O)[C@H]1O` (mixture of isomers) [L-arabinose], the Tmax in [5] and in data set [6] was at most 10 min in each case. The “Fractional absorption (f)” value is 1.10±0.15 in data set [5]; 0.26 in [16]; 0.61 in data set [17]; 0.98±0.07 in data set [6]; 0.37 in data set [8]; 0.37±0.06 in [8] (listed as arabinose). For the same compound, the “Fractional absorption (f)” value in data set [18] was 0.34; in [19], 0.61; in [9] it was 1.03±0.17 and 1.03±0.07. Further, the “A, mono-exponential fit Ct = A e^−αt” value came out at 25.1±3.1 mg^−1 plasma in data set [10] and 73.1±4.2 mg^−1 plasma in [12]. Besides, the dose excreted in [7] is 81 to 93%.
